Measurements from patent publication US6699854B2, “Anti-cancer compounds” (Cyclacel Limited, priority 2000, dated 2004).
Like-named read-outs stand apart in the source and are kept apart here. One block for each compound: values may come before it.

Experiments:
CDK2/cyclin E = target: T1, CDK2/cyclin E (Homo sapiens, UniProt P24941); assay: CDK2/cyclin E kinase assay (GST-Rb phosphorylation); type: biochemical; details: Table 2, further results for CDK2/cyclin E inhibition; read-out: CDK2/cyclin E;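 note: enzyme source: His-tagged CDK2/cyclin E co-expressed in Sf9 insect cells via baculovirus, then purified by metal-chelate chromatography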
T1 construct: His; made in house; host or cells: Sf9 insect cells (baculovirus)

A549 = assay: 72-h MTT cytotoxicity assay, A549; type: cell-based, human; details: Homo sapiens
Experimental: Selected compounds from the above examples were subjected to a standard cellular proliferation assay using a range of different human tumour cell lines. Standard 72-h MTT (thiazolyl blue; 3-{4,5-dimethylthiazol-2-yl}-2,5-diphenyltetrazolium bromide) assays were performed (Haselsberger, K.; Peterson, D. C.; Thomas, D. G.; Darling, J. L. Anti Cancer Drugs 1996, 7, 331-8; Loveland, B. E.; Johns, T. G.; Mackay, I. R.; Vaillant, F.; Wang, Z. X.; Hertzog, P. J. Biochemistry International 1992, 27, 501-10). Human tumour cell lines were obtained from the ATCC (American Type Culture Collection, 10801 University Boulevard, Manessas, Va. 20110-2209, USA).

[1] = Table 4, additional data for cytotoxicity assay using the A549 cell line, read-out: A549

SMILES: CNc1nc(C)c(-c2ccnc(Nc3ccc(Cl)c(C(F)(F)F)c3)n2)s1 [Compound 107, (4-Chloro-3-trifluoromethyl-phenyl)-{4-(4-methyl-2-methylamino-thiazol-5-yl)-pyrimidin-2-yl}-amine]
- IC50 (CDK2/cyclin E): 3000 nM
- IC50 (A549; [1]): 700 ± 200 nM

SMILES: Cc1nc(N)sc1-c1ccnc(Nc2ccc(O)cc2)n1 [Compound 114, 4-{4-(2-Amino-4-methyl-thiazol-5-yl)-pyrimidin-2-ylamino}-phenol]
- IC50 (CDK2/cyclin E): 1400 nM

SMILES: CNc1nc(C)c(-c2ccnc(Nc3cccc(Br)c3)n2)s1 [Compound 83, (3-Bromo-phenyl)-{4-(4-methyl-2-methylamino-thiazol-5-yl)-pyrimidin-2-yl}-amine]
- IC50 (CDK2/cyclin E): 200 nM
- IC50 (A549; [1]): 600 ± 300 nM

SMILES: CNc1nc(C)c(-c2ccnc(Nc3cccc(C(F)(F)F)c3)n2)s1 [Compound 90, {4-(4-Methyl-2-methylamino-thiazol-5-yl)-pyrimidin-2-yl}-(3-trifluoromethyl-phenyl)-amine]
- IC50 (CDK2/cyclin E): 200 nM
- IC50 (A549; [1]): 1800 ± 800 nM

SMILES: C=CCNc1nc(C)c(-c2ccnc(Nc3ccc(F)cc3)n2)s1 [Compound 82, {4-(2-Allylamino-4-methyl-thiazol-5-yl)-pyrimidin-2-yl}-(4-fluoro-phenyl)-amine]
- IC50 (CDK2/cyclin E): 200 nM
- IC50 (A549; [1]): 1100 ± 300 nM

SMILES: O=[N+]([O-])c1cccc(Nc2nccc(-c3cc(Cl)sc3Cl)n2)c1 [Compound 9, {4-(2,5-Dichloro-thiophen-3-yl)-pyrimidin-2-yl}-(3-nitro-phenyl)-amine]
- IC50 (CDK2/cyclin E): 4700 nM

SMILES: CNc1nc(C)c(-c2ccnc(Nc3ccc(C(F)(F)F)cc3)n2)s1 [Compound 89, {4-(4-Methyl-2-methylamino-thiazol-5-yl)-pyrimidin-2-yl}-(4-trifluoromethyl-phenyl)-amine]
- IC50 (CDK2/cyclin E): 1200 nM
- IC50 (A549; [1]): 18000 ± 11000 nM

SMILES: CNc1nc(C)c(-c2ccnc(Nc3ccc(Cl)cc3)n2)s1 [Compound 87, (4-Chloro-phenyl)-{4-(4-methyl-2-methylamino-thiazol-5-yl)-pyrimidin-2-yl}-amine]
- IC50 (CDK2/cyclin E): 80 nM
- IC50 (A549; [1]): 1700 ± 100 nM

SMILES: CNc1nc(C)c(-c2ccnc(Nc3cccc(Cl)c3)n2)s1 [Compound 108, (3-Chloro-phenyl)-{4-(4-methyl-2-methylamino-thiazol-5-yl)-pyrimidin-2-yl}-amine]
- IC50 (CDK2/cyclin E): 800 nM

SMILES: Cc1nc(-c2ccccc2)sc1-c1ccnc(Nc2ccc(F)c(F)c2)n1 [Compound 59, (3,4-Difluoro-phenyl)-{4-(4-methyl-2-phenyl-thiazol-5-yl)-pyrimidin-2-yl}-amine]
- IC50 (A549; [1]): 22000 ± 21000 nM

SMILES: CNc1nc(C)c(-c2ccnc(Nc3ccc(O)cc3)n2)s1 [Compound 63, 4-{4-(4-Methyl-2-methylamino-thiazol-5-yl)-pyrimidin-2-ylamino}-phenol]
- IC50 (A549; A549, read-out: A549): 800 ± 200 nM

SMILES: Cc1nc(C)c(-c2cc(Br)nc(Nc3cccc([N+](=O)[O-])c3)n2)s1 [Compound 54, {4-Bromo-6-(2,4-dimethyl-thiazol-5-yl)-pyrimidin-2-yl}-(3-nitro-phenyl)-amine]
- IC50 (CDK2/cyclin E): 10 nM

SMILES: CNc1nc(C)c(-c2ccnc(Nc3ccc(O)c([N+](=O)[O-])c3)n2)s1 [Compound 73, 4-{4-(4-Methyl-2-methylamino-thiazol-5-yl)-pyrimidin-2-ylamino}-2-nitro-phenol]
- IC50 (CDK2/cyclin E): 200 nM
- IC50 (A549; [1]): 9000 ± 4000 nM

SMILES: CNc1nc(C)c(-c2ccnc(Nc3cccc(OC)c3)n2)s1 [Compound 88, (3-Methoxy-phenyl)-{4-(4-methyl-2-methylamino-thiazol-5-yl)-pyrimidin-2-yl}-amine]
- IC50 (CDK2/cyclin E): 200 nM
- IC50 (A549; [1]): 400 ± 100 nM

SMILES: CCN(CC)CCOCc1cccc(Nc2nccc(-c3sc(C)nc3C)n2)c1 [Compound 118, {3-(2-Diethylamino-ethoxymethyl)-phenyl}-{4-(2,4-dimethyl-thiazol-5-yl)-pyrimidin-2-yl}-amine]
- IC50 (CDK2/cyclin E): 700 nM

SMILES: COC(=O)c1ccc(Nc2nccc(-c3sc(C)nc3C)n2)cc1Cl [Compound 101, 2-Chloro-4-{4-(2,4-dimethyl-thiazol-5-yl)-pyrimidin-2-ylamino}-benzoic acid methyl ester]
- IC50 (A549; [1]): 900 ± 200 nM

SMILES: COc1ccc(Nc2nccc(-c3sc(C)nc3C)n2)c(O)c1 [Compound 95, 2-{4-(2,4-Dimethyl-thiazol-5-yl)-pyrimidin-2-ylamino}-5-methoxy-phenol]
- IC50 (A549; [1]): 50 ± 30 nM

SMILES: Cc1nc(C)c(-c2cc(-c3ccc(C(F)(F)F)cc3)nc(Nc3ccc(Cl)cc3)n2)s1 [Compound 65, (4-Chloro-phenyl)-{4-(2,4-dimethyl-thiazol-5-yl)-6-(4-trifluoromethyl-phenyl)-pyrimidin-2-yl}-amine]
- IC50 (A549; [1]): 55000 ± 50000 nM

SMILES: Cc1nc(C)c(-c2ccnc(Nc3ccccc3C(F)(F)F)n2)s1 [Compound 27, {4-(2,4-Dimethyl-thiazol-5-yl)-pyrimidin-2-yl}-(2-trifluoromethyl-phenyl)-amine]
- IC50 (A549; [1]): 3800 nM

SMILES: CNc1nc(C)c(-c2ccnc(Nc3ccc(F)c(F)c3)n2)s1 [Compound 104, (3,4-Difluoro-phenyl)-{4-(4-methyl-2-methylamino-thiazol-5-yl)-pyrimidin-2-yl}-amine]
- IC50 (A549; [1]): 4900 ± 2500 nM

SMILES: Cc1nc(C)c(-c2ccnc(Nc3cccc(O)c3)n2)s1 [Compound 40, 3-{4-(2,4-Dimethyl-thiazol-5-yl)-pyrimidin-2-ylamino}-phenol]
- IC50 (A549; [1]): 300 nM

SMILES: Clc1ccc(Nc2nccc(-c3cc(Cl)sc3Cl)n2)cc1 [Compound 3, (4-Chloro-phenyl)-{4-(2,5-dichloro-thiophen-3-yl)-pyrimidin-2-yl}-amine]
- IC50 (A549; [1]): 5000 ± 4000 nM

SMILES: Cc1nc(C)c(-c2ccnc(Nc3cccc(N)c3)n2)s1 [Compound 47, N-{4-(2,4-Dimethyl-thiazol-5-yl)-pyrimidin-2-yl}-benzene-1,3-diamine]
- IC50 (A549; [1]): 1800 ± 1400 nM

SMILES: COC(=O)c1cc(Nc2nccc(-c3sc(C)nc3C)n2)ccc1Cl [Compound 99, 2-Chloro-5-{4-(2,4-dimethyl-thiazol-5-yl)-pyrimidin-2-ylamino}-benzoic acid methyl ester]
- IC50 (A549; [1]): 3700 ± 2700 nM

Second part, led by results:

- IC50 (CDK2/cyclin E): 20 nM
SMILES: Cc1nc(C)c(-c2ccnc(Nc3ccc(F)cc3F)n2)s1 [Compound 22, (2,4-Difluoro-phenyl)-{4-(2,4-dimethyl-thiazol-5-yl)-pyrimidin-2-yl}-amine]
- IC50 (A549; [1]): 20000 ± 1000 nM

- IC50 (CDK2/cyclin E): 700 ± 400 nM
SMILES: Cc1nc(C)c(-c2ccnc(Nc3ccc(C(=O)O)cc3)n2)s1 [Compound 53, 4-{4-(2,4-Dimethyl-thiazol-5-yl)-pyrimidin-2-ylamino}-benzoic acid]
- IC50 (A549; [1]): 12000 ± 5000 nM

- IC50 (CDK2/cyclin E): 60 ± 30 nM
SMILES: CNc1nc(C)c(-c2ccnc(Nc3ccc(F)cc3)n2)s1 [Compound 62, (4-Fluoro-phenyl)-{4-(4-methyl-2-methylamino-thiazol-5-yl)-pyrimidin-2-yl}-amine]
- IC50 (A549; [1]): 1100 ± 200 nM

- IC50 (CDK2/cyclin E): 400 ± 300 nM
SMILES: COc1cccc(Nc2nccc(-c3sc(C)nc3C)n2)c1 [Compound 38, {4-(2,4-Dimethyl-thiazol-5-yl)-pyrimidin-2-yl}-(3-methoxy-phenyl)-amine]
- IC50 (A549; [1]): 4500 ± 1600 nM

- IC50 (CDK2/cyclin E): 600 nM
SMILES: Cc1nc(C)c(-c2ccnc(Nc3ccc(O)c(Cl)c3)n2)s1 [Compound 97, 2-Chloro-4-{4-(2,4-dimethyl-thiazol-5-yl)-pyrimidin-2-ylamino}-phenol]
- IC50 (A549; [1]): 4200 ± 400 nM

- IC50 (CDK2/cyclin E): 200 nM
SMILES: Cc1nc(C)c(-c2ccnc(Nc3cccc(I)c3)n2)s1 [Compound 33, {4-(2,4-Dimethyl-thiazol-5-yl)-pyrimidin-2-yl}-(3-iodo-phenyl)-amine]
- IC50 (A549; [1]): 61000 ± 55000 nM

- IC50 (CDK2/cyclin E): 940 ± 490 nM
SMILES: Cc1nc(C)c(-c2ccnc(Nc3cccc(Br)c3)n2)s1 [Compound 30, (3-Bromo-phenyl)-{4-(2,4-dimethyl-thiazol-5-yl)-pyrimidin-2-yl}-amine]
- IC50 (A549; [1]): 6400 ± 50 nM

- IC50 (CDK2/cyclin E): 6400 ± 100 nM
SMILES: COc1ccccc1Nc1nccc(-c2sc(C)nc2C)n1 [Compound 37, {4-(2,4-Dimethyl-thiazol-5-yl)-pyrimidin-2-yl}-(2-methoxy-phenyl)-amine]
- IC50 (A549; [1]): 25000 nM

- IC50 (CDK2/cyclin E): 210 ± 160 nM
SMILES: Cc1nc(C)c(-c2ccnc(Nc3ccc(O)c([N+](=O)[O-])c3)n2)s1 [Compound 45, 4-{4-(2,4-Dimethyl-thiazol-5-yl)-pyrimidin-2-ylamino}-2-nitro-phenol]
- IC50 (A549; [1]): 3300 ± 500 nM

- IC50 (CDK2/cyclin E): 1700 nM
SMILES: Cc1nc(C)c(-c2ccnc(Nc3cc(F)cc(F)c3)n2)s1 [Compound 23, (3,5-Difluoro-phenyl)-{4-(2,4-dimethyl-thiazol-5-yl)-pyrimidin-2-yl}-amine]

- IC50 (CDK2/cyclin E): 30 nM
SMILES: Cc1nc(C)c(-c2ccnc(Nc3ccc(C#N)cc3)n2)s1 [Compound 48, 4-{4-(2,4-Dimethyl-thiazol-5-yl)-pyrimidin-2-ylamino}-benzonitrile]
- IC50 (A549; [1]): 6700 ± 1100 nM

- IC50 (CDK2/cyclin E): 500 ± 200 nM
SMILES: Cc1nc(C)c(-c2ccnc(Nc3ccc(F)c(F)c3)n2)s1 [Compound 36, (3,4-Difluoro-phenyl)-{4-(2,4-dimethyl-thiazol-5-yl)-pyrimidin-2-yl}-amine]

- IC50 (CDK2/cyclin E): 300 nM
SMILES: COC(=O)c1ccc(Nc2nccc(-c3sc(C)nc3C)n2)cc1 [Compound 50, 4-{4-(2,4-Dimethyl-thiazol-5-yl)-pyrimidin-2-ylamino}-benzoic acid methyl ester]
- IC50 (A549; [1]): 8800 ± 10000 nM

- IC50 (CDK2/cyclin E): 60 nM
SMILES: COc1ccc(Nc2nccc(-c3sc(C)nc3C)n2)cc1Cl [Compound 52, (3-Chloro-4-methoxy-phenyl)-{4-(2,4-dimethyl-thiazol-5-yl)-pyrimidin-2-yl}-amine]
- IC50 (A549; [1]): 800 ± 300 nM

- IC50 (CDK2/cyclin E): 10000 nM
SMILES: CNc1nc(C)c(-c2ccnc(Nc3cc(F)cc(F)c3)n2)s1 [Compound 106, (3,5-Difluoro-phenyl)-{4-(4-methyl-2-methylamino-thiazol-5-yl)-pyrimidin-2-yl}-amine]
- IC50 (A549; [1]): 2800 ± 500 nM

- IC50 (CDK2/cyclin E): 1200 nM
SMILES: CNc1nc(C)c(-c2ccnc(Nc3cccc(F)c3)n2)s1 [Compound 103, (3-Fluoro-phenyl)-{4-(4-methyl-2-methylamino-thiazol-5-yl)-pyrimidin-2-yl}-amine]
